# Patent US20250304620A1, “ANTIMICROBIAL PEPTIDE AND APPLICATION THEREOF” (priority 2023, published 2025)
# Marks after values point to notes of the source that are not given here. Non-standard residues stand in square brackets, D forms with d. Residues, ends and D or L forms follow the SMILES beside them. dPhe(3,4-F2) = N[C@H](Cc1ccc(F)c(F)c1)C(=O)O; dPhe(4-F) = N[C@H](Cc1ccc(F)cc1)C(=O)O
# Experiments:
# rabbit red blood cells = assay type: cell-based; details: red cells of rabbit, 1 h
# [1] = system: Pseudomonas aeruginosa ATCC 27853; experiment: Injectable formulations on mice infected with peritonitis; assay type: in vivo, ICR mice; details: twice a day for 3 days; for Number of mice that died on each day after infection: day 1 / Number of mice that died on each day after infection: day 2 / Number of mice that died on each day after infection: day 3 / Number of mice that died on each day after infection: day 4 / Number of mice that died on each day after infection: day 5 / Average survival times (Days): n = 10; for Average survival times (Days): observed for 14 d
# Protocol: Both female and male ICR mice were used in the test, half of the female and male mice were taken and randomly assigned into groups, with 10 mice in each group, and kept in separate cages. The mice were divided into a blank control group, a negative control group, a positive control Levofloxacin group, and AMPs LV-1 to LV-30 groups. A bacterial suspension of Pseudomonas aeruginosa ATCC 27853 was prepared, a concentration of the suspension was adjusted 1×10^9 CFU/mL for subsequent use. Except for the blank control group, all other mice were injected with the bacterial suspension (0.2 mL, 1×10^9 CFU/mL), into abdominal cavity of the mice, to establish a model. After the model was successfully established, the mice were given drug immediately according to their body weights. Except for the blank control group and the negative control group, the mice in all other groups were administered the corresponding injectable formulations via tail vein, twice a day for 3 consecutive days. The mice were then observed for 14 d. The death of mice in each group was observed, and survival time of the mice was recorded. Results of the effect of the injectable formulations of AMPs LV-1 to LV-30 on the survival time of mice infected with Pseudomonas aeruginosa are shown in Table 10.
# [2] = system: Escherichia coli ATCC 25922; experiment: Oral formulations on mice with systemic bacterial infection; assay type: in vivo, ICR mice; details: three times a day for 7 days; for Number of mice that died on each day after infection: day 4 / Number of mice that died on each day after infection: day 5 / Number of mice that died on each day after infection: day 6 / Number of mice that died on each day after infection: day 7 / Number of mice that died on each day after infection: day 8 / Average survival times (Days): n = 10; for Average survival times (Days): observed for 14 d
# Protocol: Both female and male ICR mice were used in the test, half of the female and male mice were taken and randomly assigned into groups, with 10 mice in each group, and kept in separate cages. The mice were divided into a blank control group, a negative control group, a positive control Levofloxacin group, and AMPs LV-1 to LV-30 groups. An Escherichia coli ATCC 25922 bacterial suspension was prepared, a concentration of the suspension was adjusted 1×10^7 CFU/mL for subsequent use. Except for the blank control group, all other mice were injected with the Escherichia coli suspension (0.2 mL, 1×10^7 CFU/mL), into abdominal cavity of the mice, to establish a model. After the model was successfully established, the mice were given drug immediately according to their body weights. Except for the blank control group and the negative control group, the mice in all other groups were gavaged with different compounds, three times a day for 7 consecutive days. The mice were then observed for 14 d. The death of mice in each group was observed, and survival time of the mice was recorded. Results of the effect of the oral formulations of AMPs LV-1 to LV-30 on the survival time of mice infected with Escherichia coli are shown in Table 11.
structure (smiles),measurement,setting,value
CC(=O)N[C@H](CCCNC(=N)N)C(=O)N[C@H](CCCCN)C(=O)N[C@H](CC(C)C)C(=O)N[C@H](CC(C)C)C(=O)N[C@H](Cc1ccc(F)cc1)C(=O)N[C@H](CCCCN)C(=O)N[C@H](CC(C)C)C(=O)N[C@H](CCCCN)C(=O)N[C@H](Cc1ccc(F)cc1)C(=O)N[C@H](CCCCN)C(=O)N[C@H](CCCNC(=N)N)C(N)=O [LV-5] (Ac-[dR][dK][dL][dL][dPhe(4-F)][dK][dL][dK][dPhe(4-F)][dK][dR]-NH2),"MHC (minimum hemolytic concentration, lowest concentration causing 10% hemolysis)",rabbit red blood cells,>1000 µg/mL
same,Number of mice that died on each day after infection: day 1,[1]; 1 mg/kg via tail vein,1 Mouse
same,Number of mice that died on each day after infection: day 2,[1]; 1 mg/kg via tail vein,1 Mouse
same,Number of mice that died on each day after infection: day 3,[1]; 1 mg/kg via tail vein,1 Mouse
same,Number of mice that died on each day after infection: day 4,[1]; 1 mg/kg via tail vein,0 Mouse
same,Number of mice that died on each day after infection: day 5,[1]; 1 mg/kg via tail vein,1 Mouse
same,Average survival times (Days),[1]; 1 mg/kg via tail vein,9.5*** Days
same,Number of mice that died on each day after infection: day 4,[2]; 1 mg/kg gavage,1 Mouse
same,Number of mice that died on each day after infection: day 5,[2]; 1 mg/kg gavage,2 Mouse
same,Number of mice that died on each day after infection: day 6,[2]; 1 mg/kg gavage,2 Mouse
same,Number of mice that died on each day after infection: day 7,[2]; 1 mg/kg gavage,1 Mouse
same,Number of mice that died on each day after infection: day 8,[2]; 1 mg/kg gavage,0 Mouse
same,Average survival times (Days),[2]; 1 mg/kg gavage,8.9** Days
"CC(=O)N[C@H](CCCNC(=N)N)C(=O)N[C@H](CCCCN)C(=O)N[C@H](CC(C)C)C(=O)N[C@H](CC(C)C)C(=O)N[C@H](Cc1ccc(F)c(F)c1)C(=O)N[C@H](CCCCN)C(=O)N[C@H](CC(C)C)C(=O)N[C@H](CCCCN)C(=O)N[C@H](Cc1ccc(F)c(F)c1)C(=O)N[C@H](CCCCN)C(=O)N[C@H](CCCNC(=N)N)C(N)=O [LV-6] (Ac-[dR][dK][dL][dL][dPhe(3,4-F2)][dK][dL][dK][dPhe(3,4-F2)][dK][dR]-NH2)","MHC (minimum hemolytic concentration, lowest concentration causing 10% hemolysis)",rabbit red blood cells,>1000 µg/mL
same,Number of mice that died on each day after infection: day 1,[1]; 0.2 mg/kg via tail vein,2 Mouse
same,Number of mice that died on each day after infection: day 2,[1]; 0.2 mg/kg via tail vein,2 Mouse
same,Number of mice that died on each day after infection: day 3,[1]; 0.2 mg/kg via tail vein,1 Mouse
same,Number of mice that died on each day after infection: day 4,[1]; 0.2 mg/kg via tail vein,0 Mouse
same,Number of mice that died on each day after infection: day 5,[1]; 0.2 mg/kg via tail vein,0 Mouse
same,Average survival times (Days),[1]; 0.2 mg/kg via tail vein,7.9** Days
same,Number of mice that died on each day after infection: day 1,[1]; 1 mg/kg via tail vein,1 Mouse
same,Number of mice that died on each day after infection: day 2,[1]; 1 mg/kg via tail vein,1 Mouse
same,Number of mice that died on each day after infection: day 3,[1]; 1 mg/kg via tail vein,0 Mouse
same,Number of mice that died on each day after infection: day 4,[1]; 1 mg/kg via tail vein,1 Mouse
same,Number of mice that died on each day after infection: day 5,[1]; 1 mg/kg via tail vein,0 Mouse
same,Average survival times (Days),[1]; 1 mg/kg via tail vein,10.5**** Days
same,Number of mice that died on each day after infection: day 1,[1]; 5 mg/kg via tail vein,1 Mouse
same,Number of mice that died on each day after infection: day 2,[1]; 5 mg/kg via tail vein,2 Mouse
same,Number of mice that died on each day after infection: day 3,[1]; 5 mg/kg via tail vein,1 Mouse
same,Number of mice that died on each day after infection: day 4,[1]; 5 mg/kg via tail vein,0 Mouse
same,Number of mice that died on each day after infection: day 5,[1]; 5 mg/kg via tail vein,0 Mouse
same,Average survival times (Days),[1]; 5 mg/kg via tail vein,9.2*** Days
same,survival time of mice infected with Pseudomonas aeruginosa,"[1]; tail vein, observed 14 d",superior to those of the Levofloxacin group
same,Number of mice that died on each day after infection: day 4,[2]; 0.2 mg/kg gavage,1 Mouse
same,Number of mice that died on each day after infection: day 5,[2]; 0.2 mg/kg gavage,3 Mouse
same,Number of mice that died on each day after infection: day 6,[2]; 0.2 mg/kg gavage,2 Mouse
same,Number of mice that died on each day after infection: day 7,[2]; 0.2 mg/kg gavage,0 Mouse
same,Number of mice that died on each day after infection: day 8,[2]; 0.2 mg/kg gavage,0 Mouse
same,Average survival times (Days),[2]; 0.2 mg/kg gavage,8.7** Days
same,Number of mice that died on each day after infection: day 4,[2]; 1 mg/kg gavage,1 Mouse
same,Number of mice that died on each day after infection: day 5,[2]; 1 mg/kg gavage,0 Mouse
same,Number of mice that died on each day after infection: day 6,[2]; 1 mg/kg gavage,1 Mouse
same,Number of mice that died on each day after infection: day 7,[2]; 1 mg/kg gavage,1 Mouse
same,Number of mice that died on each day after infection: day 8,[2]; 1 mg/kg gavage,1 Mouse
same,Average survival times (Days),[2]; 1 mg/kg gavage,10.9*** Days
same,Number of mice that died on each day after infection: day 4,[2]; 5 mg/kg gavage,2 Mouse
same,Number of mice that died on each day after infection: day 5,[2]; 5 mg/kg gavage,1 Mouse
same,Number of mice that died on each day after infection: day 6,[2]; 5 mg/kg gavage,1 Mouse
same,Number of mice that died on each day after infection: day 7,[2]; 5 mg/kg gavage,0 Mouse
same,Number of mice that died on each day after infection: day 8,[2]; 5 mg/kg gavage,0 Mouse
same,Average survival times (Days),[2]; 5 mg/kg gavage,10.3*** Days
same,survival time of mice infected with Escherichia coli,"[2]; gavage, observed 14 d",superior to those of the Levofloxacin group
